US4971965A, “Antibiotics TAN-1057” (Takeda Chemical Industries, Ltd., priority 1988, dated 1990)
≈ marks a conversion by molar mass, not a printed value. Where two headings read alike, the source gives them in different places.

Experiments:
[1] = test system: Bacteroides thermophilis PNA-1-24; test: MIC against anaerobic bacteria (Table 3); type: cell-based; details: PNA124, 10^6 CFU/ml, GAM medium, Gas Pack, 37° C., 18 hours
[2] = test system: Peptostreptococcus anaerobium B-40; test: MIC against anaerobic bacteria (Table 3); type: cell-based; details: B40, 10^6 CFU/ml, GAM medium, Gas Pack, 37° C., 18 hours
[3] = Acute toxicity in mice (Table 7); details: mouse, in vivo
[4] = test system: Mycoplasma garisepticum TB-3A; test: MIC against Mycoplasma (Table 3); type: cell-based; details: TB3A, 120 h, 10^6 CFU/ml, Hayflick medium, 37° C., 5 days
[5] = test system: Bacillus megaterium IFO 12108; type: cell-based; details: Priestia megaterium, IFO12108, read-out: Minimum Inhibitory Conc. (MIC)
Procedure: (§1) (Note 1) Measurement was conducted by employing a medium consisting of DY
(§2) medium [Bacto Antibiotic Medium 3 (Difco Laboratories, USA)(17.5 g), Bact
(§3) yeast extract(Difco Laboratories, USA)(5.0 g) and distilled water(pH
(§4) unadjusted)(1000 ml)], using approximately 10^6 colony forming unit/m
(§5) of inoculum, by means of the agar dilution method.

[6] = test system: Salmonella typhimurium IFO 12529; type: cell-based; details: Salmonella enterica; agar dilution; DY medium, pH unadjusted; approx. 10^6 CFU/ml; read-out: Minimum Inhibitory Conc. (MIC)
Procedure: as §1, §2, §3, §4, §5

[7] = test system: Proteus vulgaris IFO 3988; type: cell-based; details: IFO3988, agar dilution, DY medium, pH unadjusted, approx. 10^6 CFU/ml, read-out: Minimum Inhibitory Conc. (MIC)
Procedure: as §1, §2, §3, §4, §5

[8] = test system: Bacillus subtilis NIHJ PCI 219; type: cell-based; details: read-out: Minimum Inhibitory Conc. (MIC)
Procedure: as §1, §2, §3, §4, §5

[9] = test system: Staphylococcus epidermidis IFO 3762; type: cell-based; details: IFO3762, agar dilution, DY medium, pH unadjusted, approx. 10^6 CFU/ml, read-out: Minimum Inhibitory Conc. (MIC)
Procedure: as §1, §2, §3, §4, §5

Bacillus cereus FDA 5 = type: cell-based; details: FDA5, agar dilution, DY medium, pH unadjusted, approx. 10^6 CFU/ml, read-out: Minimum Inhibitory Conc. (MIC)
Procedure: as §1, §2, §3, §4, §5

[10] = test system: Escherichia coli NIHJ JC 2; type: cell-based; details: NIHJJC2, agar dilution, DY medium, pH unadjusted, approx. 10^6 CFU/ml, read-out: Minimum Inhibitory Conc. (MIC)
Procedure: as §1, §2, §3, §4, §5

[11] = test system: Klebsiella pnemoniae IFO 3317; type: cell-based; details: IFO3317, agar dilution, DY medium, pH unadjusted, approx. 10^6 CFU/ml, read-out: Minimum Inhibitory Conc. (MIC)
Procedure: as §1, §2, §3, §4, §5

[12] = test system: Micrococcus luteus IFO 12708; type: cell-based; details: IFO12708, read-out: Minimum Inhibitory Conc. (MIC)
Procedure: as §1, §2, §3, §4, §5

Escherichia coli LD-2 [13] = type: cell-based; details: LD2, read-out: Minimum Inhibitory Conc. (MIC)
Procedure: as §1, §2, §3, §4, §5

[14] = test system: Acinetobacter calcoaceticus IFO 12552; type: cell-based; details: IFO12552, agar dilution, DY medium, pH unadjusted, approx. 10^6 CFU/ml, read-out: Minimum Inhibitory Conc. (MIC)
Procedure: as §1, §2, §3, §4, §5

Aeromonas caviae NCW = type: cell-based; details: read-out: Minimum Inhibitory Conc. (MIC)
Procedure: as §1, §2, §3, §4, §5

[15] = test system: Streptococcus faecalis IFO 3989; type: cell-based; details: Enterococcus faecalis, IFO3989, read-out: Minimum Inhibitory Conc. (MIC)
Procedure: as §1, §2, §3, §4, §5

[16] = test system: Pseudomonas aeruginosa IFO 3080; type: cell-based; details: IFO3080, agar dilution, DY medium, pH unadjusted, approx. 10^6 CFU/ml, read-out: Minimum Inhibitory Conc. (MIC)
Procedure: as §1, §2, §3, §4, §5

[17] = test system: Staphylococcus aureus FDA 209P; type: cell-based; details: FDA209P, read-out: Minimum Inhibitory Conc. (MIC)
Procedure: as §1, §2, §3, §4, §5

[18] = test system: Salmonella typhimurium IFO 12529; test: Antibacterial activity (broth dilution MIC, Table 1); type: cell-based; details: Salmonella enterica
Procedure: (§6) The biological activities of TAN-1057 are described as follows.
(§7) (Note 1) Measurement was conducted by employing a medium consisting of
(§8) Bacto Antibiotic Medium 3 (Difco Laboratories, USA)(17.5 g), Bacto yeast
(§9) extract(Difco Laboratories, USA)(5.0 g) and distilled water(pH
(§10) […])(1000 ml), using approximately 10^5 colony forming unit/ml
(§11) of inoculum, by means of the broth dilution method.

[19] = test system: Klebsiella pnemoniae IFO 3317; test: as above; type: cell-based
Procedure: as §6, §7, §8, §9, §10, §11

Escherichia coli LD-2 [20] = test: as above; type: cell-based
Procedure: as §6, §7, §8, §9, §10, §11

[21] = test system: Acinetobacter calcoaceticus IFO 12552; test: as above; type: cell-based
Procedure: as §6, §7, §8, §9, §10, §11

[22] = test system: Pseudomonas aeruginosa PAO-8; test: as above; type: cell-based
Procedure: as §6, §7, §8, §9, §10, §11

[23] = test system: Streptococcus faecalis IFO 3989; test: as above; type: cell-based; details: Enterococcus faecalis
Procedure: as §6, §7, §8, §9, §10, §11

[24] = test system: Staphylococcus aureus FDA 209P; test: as above; type: cell-based; details: FDA209P
Procedure: as §6, §7, §8, §9, §10, §11

[25] = pH 7, read-out: Minimum Inhibitory Conc. (MIC)

CN(C(=O)C[C@@H](N)CCCNC(=N)N)[C@H]1CNC(NC(N)=O)=NC1=O [TAN-1057A]
MIC [1]: 0.78 µg/mL (≈ 2.19 µM)
MIC [2]: 25 µg/mL (≈ 70.3 µM)
LD50 ([3]; Oral): > 400 mg/kg
LD50 ([3]; ip, Intraperitoneal): ~100 mg/kg
MIC [4]: 3.13 µg/mL (≈ 8.81 µM)
MIC [5]: 12.5 µg/mL (≈ 35.2 µM)
MIC [6]: 100 µg/mL (≈ 281 µM)
MIC [7]: > 100 µg/mL
MIC [8]: 12.5 µg/mL (≈ 35.2 µM)
MIC [9]: 0.78 µg/mL (≈ 2.19 µM)
MIC (Bacillus cereus FDA 5): 25 µg/mL (≈ 70.3 µM)
MIC [10]: > 100 µg/mL
MIC [11]: > 100 µg/mL
MIC [12]: 3.13 µg/mL (≈ 8.81 µM)
MIC (Escherichia coli LD-2 [13]): 12.5 µg/mL (≈ 35.2 µM)
MIC [14]: 50 µg/mL (≈ 141 µM)
MIC (Aeromonas caviae NCW): 12.5 µg/mL (≈ 35.2 µM)
MIC [15]: 12.5 µg/mL (≈ 35.2 µM)
MIC [16]: > 100 µg/mL
MIC [17]: 6.25 µg/mL (≈ 17.6 µM)
MIC ([18]; pH 5, read-out: Minimum Inhibitory Conc. (MIC)): > 100 µg/mL
MIC [18, 25]: > 100 µg/mL
MIC ([18]; pH 9, read-out: Minimum Inhibitory Conc. (MIC)): 25 µg/mL (≈ 70.3 µM)
MIC ([19]; IFO3317, pH 5, read-out: Minimum Inhibitory Conc. (MIC)): > 100 µg/mL
MIC ([19]; IFO3317, pH 7, read-out: Minimum Inhibitory Conc. (MIC)): > 100 µg/mL
MIC ([19]; IFO3317, pH 9, read-out: Minimum Inhibitory Conc. (MIC)): 100 µg/mL (≈ 281 µM)
MIC (Escherichia coli LD-2 [20]; LD2, pH 5, read-out: Minimum Inhibitory Conc. (MIC)): 100 µg/mL (≈ 281 µM)
MIC (Escherichia coli LD-2 [20]; LD2, pH 7, read-out: Minimum Inhibitory Conc. (MIC)): 25 µg/mL (≈ 70.3 µM)
MIC (Escherichia coli LD-2 [20]; LD2, pH 9, read-out: Minimum Inhibitory Conc. (MIC)): 1.56 µg/mL (≈ 4.39 µM)
MIC ([21]; IFO12552, pH 5, read-out: Minimum Inhibitory Conc. (MIC)): 12.5 µg/mL (≈ 35.2 µM)
MIC ([21]; IFO12552, pH 7, read-out: Minimum Inhibitory Conc. (MIC)): 6.25 µg/mL (≈ 17.6 µM)
MIC ([21]; IFO12552, pH 9, broth dilution, read-out: Minimum Inhibitory Conc. (MIC)): 1.56 µg/mL (≈ 4.39 µM)
MIC ([22]; PAO8, pH 5, read-out: Minimum Inhibitory Conc. (MIC)): 100 µg/mL (≈ 281 µM)
MIC ([22]; PAO8, pH 7, read-out: Minimum Inhibitory Conc. (MIC)): > 100 µg/mL
MIC ([22]; PAO8, pH 9, read-out: Minimum Inhibitory Conc. (MIC)): 100 µg/mL (≈ 281 µM)
MIC ([23]; IFO3989, pH 7, read-out: Minimum Inhibitory Conc. (MIC)): 12.5 µg/mL (≈ 35.2 µM)
MIC ([23]; IFO3989, pH 9, read-out: Minimum Inhibitory Conc. (MIC)): 3.13 µg/mL (≈ 8.81 µM)
MIC ([23]; IFO3989, pH 5, broth dilution, read-out: Minimum Inhibitory Conc. (MIC)): > 100 µg/mL
MIC [24, 25]: 3.13 µg/mL (≈ 8.81 µM)
MIC ([24]; pH 9, broth dilution, read-out: Minimum Inhibitory Conc. (MIC)): < 0.1 µg/mL
